From patent US20240400529A1, “COMPOSITIONS AND METHODS FOR THE PREVENTION AND/OR TREATMENT OF MITOCHONDRIAL DISEASE, INCLUDING FRIEDREICH'S ATAXIA” (Stealth BioTherapeutics Inc., priority 2019, published 2024)
“Also recorded” adds a separate entry of the source. Like-named read-outs stand apart in the source and are kept apart here.

Assays:
[1] = test system: frataxin deficient fibroblasts (Friedreich's ataxia patient, GM03665); assay type: cell-based
[2] = target: lipoxygenase-15 enzyme (Glycine max (Soybean) (Glycine hispida), UniProt P08170); test: Lipoxygenase-15 Assay (LO-15 Assay); assay type: biochemical; settings: reduced forms tested
[3] = test system: Nrf-2 responsive genes; test: Nrf-2 Activation Assay (Nrf-2 Assay); assay type: cell-based, human; settings: 24 hours; for activation of Nrf-2 responsive genes / pathway, in words: FIG. 7, 1 μM
Description: This assay was developed internally and was designed to determine if the novel test compounds disclosed herein active Nrf-2 and thereby promote resolution of inflammation by the mechanism believed to be responsible for the activity of omaveloxolone.
Briefly, GM03665 Eriedreich Ataxia patient fibroblasts were grown in 12 Well Plates (TC Cell+F) (Sarstedt, Nümbrecht Germany), at a density of 12×10^4 cells/per well in DMEM/F12 (Gibco, ThermoFisher Scientific, Waltham, MA, USA) cell media supplemented with 10% FBS and 1% Pen/Strep. Cells were left to rest overnight at 37° C. in a humidified atmosphere with 5% CO2 to allow attachment of the cells to the culture plate. Before continuing assay visual inspection of each well was done by light microscopy to detect any possible bacterial and fungal contamination. […] After incubation, cell media was removed and total RNA from the cells was isolated using E.Z.N.A.® Total RNA Kit I (Omega Bio-tek, Norcross, Georgia, USA) spin columns, and first-strand cDNA synthesis was carried out using a High Capacity cDNA Reverse Transcription Kit (Applied Biosystems™, Foster City, CA) following the manufacturer's instructions. qPCR analysis of gene expression was performed by mixing SYBR® Green Master Mix (Applied Biosystems™) with synthesized cDNA and forward and reverse primers. […] (60 cycles), and 95° C. for 60 seconds, followed by melt curve analysis at 72-95° C., 0.3° C./sec. The relative expression levels for each gene were calculated with the ΔΔCt method and normalized to the expression of REEP5 and SNRPD3 genes.

[4] = test system: GM03665 cells (fibroblasts from a subject with Friedreich's ataxia); test: RSL3 Toxicity Assay (RSL3 Assay); assay type: cell-based, human; settings: for EC50: Homo sapiens, Fibroblast, 2 μM RSL3, 24 hours, MTT
Description: In brief, GM03665 cells (Coriell Institute) were seeded in 96-well plates (Sarstedt) in DMEM cell culture media containing 10% Fetal Bovine serum and 1% Penicillin-Streptomycin (Pen-Strep) antibiotic mix at the amount of 2×10^4/mL (100 μL or 2×10^3 cells per well). Cells were left to rest overnight at 37° C. in a humidified atmosphere with 5% CO2 to allow attachment of the cells to the culture plate. Test compounds were prepared as DMSO stocks (10 mM) and were serially diluted in cell culture media to obtain 2× working solutions. Cell media was discarded and replaced by 50 μL of test compound solutions or cell media with vehicle for control wells. Within 15 minutes, 2× working solution (4 μM) of 1S,3R-RSL3 (CAS #1219810-16-8, Sigma-Aldrich) (diluted from 5 mM DMSO stock in cell culture media) was added. Final reaction volume was 100 μL and final DMSO concentration in reaction was kept below 0.2% (v/v) and equal in all wells. Final RSL3 concentration was 2 μM and test compound final concentrations in reaction were up to 1000 nM. After 24 hours of incubation cell viability was assessed by MTT test. MTT (Sigma-Aldrich) solution 1 mg/mL in 1×PBS (pH=7,4) was prepared 1 hour before the assay and filtered through Filtropur S 0.2 filters (Sarstedt). Cell media with test compounds was discarded and 100 μL of MTT solution was added to cells. The plates were incubated for 2 hours at +37° C. Thereafter, the MTT solution was removed and 100 μL of isopropanol was added to dissolve sediment. Absorption at 570 and 650 nm was measured using Hidex Sense microplate reader.

[5] = test system: intact HepG2 cells; test: Rotenone Oxygraph Assay (high-resolution respirometry); assay type: cell-based, human; settings: 1 μM rotenone, 10 μM compound
Description: The Oxygraph-2k (O2k, OROBOROS INSTRUMENTS, Austria) was used for measurements of respiration of intact cells. The respirometry was performed in Dulbecco's Modified Eagle Medium (DMEM) high glucose without supplements. All experiments were performed at 37° C.
HepG2 cells (ATCC collection code HB-8065™) were cultured in 10 cm^2 culture dishes in DMEM high glucose medium supplemented with 10% fetal bovine serum (FBS) and 100 units/mL penicillin and 100 μg/mL streptomycin until approximately 90% confluence was reached. Immediately prior to performing the respirometric assay, the cells were washed with media without FBS, trypsinized and resuspended in DMEM high glucose without FBS.
The final concentration of intact cells in the O2k-chamber was 0.5.10^6/mL. After stabilization of respiration, the Complex I inhibitor, rotenone, at 1 μM final concentration was added to inhibit electron flux via Complex I. Then, compound to be tested was added at 10 μM final concentration, and the change in respiration rate of intact cells was monitored.

[6] = test system: HepG2 human hepatocarcinoma cells; test: Rotenone ATP Assay (Complex I by-pass); assay type: cell-based; settings: summary statements also cover the Oxygraph assay
Description: This assay has been adapted from Haefeli R H, Erb M, Gemperli A C, Robay D, Courdier Fruh I, et al. (2011) NQO1-Dependent Redox Cycling of Idebenone: Effects on Cellular Redox Potential and Energy Levels. PLOS ONE 6 (3): e17963. HepG2 human hepatocarcinoma cells were co-incubated with the electron transport chain Complex I toxin rotenone+/−compounds of interest and the corresponding effect on ATP synthesis was measured with a bioluminescent substrate.
In brief, HepG2 cells were plated at 25,000 cells per well in low glucose (1 gram/Liter) DMEM medium+10% fetal calf serum and incubated for 24 hours. The following day, the media was decanted and subsequently replaced with glucose free/serum free DMEM which has been supplemented with 50 micromolar rotenone and compound of interest. Serial dilutions of compound were prepared in 3× dilutions beginning at 25 micromolar. The cells were incubated for 60 minutes in a humidified tissue culture incubator. Following incubation, ATP levels were quantified via bioluminescent assay (Promega […] Glo Assay kit) and readings were captured on a standard microplate reader.
ATP bioluminescence is plotted versus the log of compound of interest and data were used to generate EC50 values. Curve fitting was performed using a sigmoidal dose response curve fit function (GraphPad Prism software).
Robustness of curve fit was assessed as a quality control measure, with an R squared value of at least 0.80 being required for a successful curve fit. Compounds of interest showing an increase in ATP bioluminescence relative to vehicle control were verified in an independent biological replicate of n=3 technical replicates per dose.
This assay is a direct measure of the ability of compounds of interest to restore ATP production under conditions of inhibition of Complex I of the mitochondrial electron transport chain. As the majority of ATP produced via the electron transport chain is thought to derive from Complex I activity, significant impairment in Complex I function has dire biological consequences. Of note, Complex I mutations are thought to drive pathophysiology in multiple mitochondrial diseases, including Leigh syndrome and Leber's Hereditary Optic Neuropathy (LHON), while diminished Complex I activity and the resultant attenuation of ATP production has been shown in neurodegenerative diseases, including Friedreich's Ataxia, Parkinson's Disease and Huntington's Disease.

SMILES | protection from BSO induced cell death / ferroptosis, in words [1] | lipoxygenase-15 inhibition, in words [2] | Nrf-2 Assay (Table 7) ([3]; 1 μM compound, qPCR of Nrf-2 responsive genes) | activation of Nrf-2 responsive genes / pathway, in words [3] | activity in the RSL3 Assay, in words [4] | EC50 ([4]; mean of at least three measurements, unit from Table 7, read-out: Mean EC50, RSL3 Assay (Table 3)) [nM] | EC50 ([4]; read-out: RSL3 Assay EC50, nM (Table 7)) [nM] | Rotenone Oxygraph Assay % Increase (Table 7) [5] | Complex I by-pass activity / restoring ATP production, in words [6]
CC1=C(C)C(=O)C(CC[C@@](C)(O)COCCC[Si](C)(C)C)=C(C)C1=O [Compound M, (R)-2-(3-hydroxy-3-methyl-4-(3-(trimethylsilyl)propoxy)butyl)-3,5,6-trimethylcyclohexa-2,5-diene-1,4-dione] | able to prevent ferroptotic cell death; also recorded: active | best result; also recorded: effective inhibitors | Inactive | do not activate | active; also recorded: able to prevent ferroptotic cell death | 41.2 | 41.2 | 56.6 +/− 11.3% | active
CC1=C(C)C(=O)C(CC[C@](C)(O)CCCCCCCCC(F)(F)F)=C(C)C1=O [Compound N, (R)-2,3,5-trimethyl-6-(12,12,12-trifluoro-3-hydroxy-3-methyldodecyl)cyclo-hexa-2,5-diene-1,4-dione] | possess both activities; also recorded: able to prevent ferroptotic cell death; also recorded: active | effective inhibitors |  | do not activate | active; also recorded: able to prevent ferroptotic cell death |  |  | 44.8 +/− 10.3% | possess both activities
